In this test the test system is BDF1 mice, P388 leukemia ip, median survival T/C. The test is described as follows: NCI In Vivo Anticancer Drug Screen. Data for tumor model P388 Leukemia (intraperitoneal) in B6D2F1 (BDF1) mice. To be noted: endpoint: median survival time, higher = longer survival. In outline:
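Mice carrying the transplantable tumour receive compound or vehicle. Survival is followed in each arm, and the treated measure is divided by the vehicle measure.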

The mark [1] stands for this setting: dose: 50.0 mg/kg/injection, schedule: Q01DX009 (ip), vehicle: saline with Tween-80.
Setting [2] is: dose: 100.0 mg/kg/injection, schedule: Q01DX009 (ip), vehicle: saline with Tween-80.
Where [3] appears, read: dose: 200.0 mg/kg/injection, schedule: Q01DX009 (ip), vehicle: saline with Tween-80.
Where [4] appears, read: dose: 100.0 mg/kg/injection, schedule: Q01DX009 (ip), vehicle: Klucel (hydroxypropylcellulose) (HPC).
Setting [5] is: dose: 100.0 mg/kg/injection, schedule: Q04DX003 (ip), vehicle: saline.
[6] abbreviates: dose: 200.0 mg/kg/injection, schedule: Q04DX003 (ip), vehicle: saline.
Setting [7] is: dose: 400.0 mg/kg/injection, schedule: Q04DX003 (ip), vehicle: saline.

“And” between values parts separate entries of the source, which are not always exact repeats. Identical values can stand only once. Inconclusive results and toxic doses are left out.

Turning to `O=[N+]([O-])c1ccc(S(=O)(=O)OCc2cccc(OS(=O)(=O)c3ccc([N+](=O)[O-])cc3)c2)cc1`, the T/C was 105 % of control (dose: 100.0 mg/kg/injection, schedule: Q04DX003 (ip), vehicle: saline sonified); 116 % of control (dose: 200.0 mg/kg/injection, schedule: Q04DX003 (ip), vehicle: saline sonified); 105 % of control (dose: 400.0 mg/kg/injection, schedule: Q04DX003 (ip), vehicle: saline sonified).

Turning to `O=C(Oc1ccccc1)c1cc(O)c(O)c(O)c1`, the T/C was 100 % of control and 106 % of control (dose: 50.0 mg/kg/injection, schedule: Q01DX005 (ip), vehicle: saline with Tween-80); 107 % of control and 115 % of control (dose: 100.0 mg/kg/injection, schedule: Q01DX005 (ip), vehicle: saline with Tween-80); 105 % of control (dose: 200.0 mg/kg/injection, schedule: Q01DX005 (ip), vehicle: saline with Tween-80); 154 % of control (dose: 400.0 mg/kg/injection, schedule: Q01DX005 (ip), vehicle: saline with Tween-80).

As for `O=C(NO)c1cccnc1`, the T/C was 119 % of control (dose: 300.0 mg/kg/injection, schedule: Q01DX010 (ip), vehicle: water); 109 % of control and 118 % of control (dose: 400.0 mg/kg/injection, schedule: Q01DX010 (ip), vehicle: water); 150 % of control and 154 % of control (dose: 600.0 mg/kg/injection, schedule: Q01DX010 (ip), vehicle: water).

Take `CS(=O)(=O)OCCNC[C@@H](O)[C@@H](O)CNCCOS(C)(=O)=O`: the T/C by setting is: (dose: 0.17 mg/kg/injection, schedule: Q04DX003 (ip), vehicle: saline) 121 % of control; (dose: 0.26 mg/kg/injection, schedule: Q04DX003 (ip), vehicle: saline) 117 % of control; (dose: 0.4 mg/kg/injection, schedule: Q04DX003 (ip), vehicle: saline) 154 % of control; (dose: 0.6 mg/kg/injection, schedule: Q04DX003 (ip), vehicle: saline) 170 % of control; (dose: 0.92 mg/kg/injection, schedule: Q04DX003 (ip), vehicle: saline) 175 % of control; (dose: 1.3 mg/kg/injection, schedule: Q04DX003 (ip), vehicle: saline) 175 % of control. For the same compound, the T/C was 186 % of control (dose: 2.1 mg/kg/injection, schedule: Q04DX003 (ip), vehicle: saline); 168 % of control (dose: 3.1 mg/kg/injection, schedule: Q04DX003 (ip), vehicle: saline); 200 % of control (dose: 11.0 mg/kg/injection, schedule: Q04DX003 (ip), vehicle: saline); 243 % of control (dose: 16.0 mg/kg/injection, schedule: Q04DX003 (ip), vehicle: saline); 300 % of control and 118 % of control (dose: 33.0 mg/kg/injection, schedule: Q04DX003 (ip), vehicle: saline).

Take `Cc1cc(C)c2nc3c(c(C(O)C4CCCCN4)c2c1)CC/C3=C\c1ccc(Cl)cc1` (stereo not given): the T/C is 114 % of control under setting [1], 100 % of control under setting [2] and 116 % of control under setting [3].

On to `O=C1C(NC(=O)C2CCCCC2)=C(N2CC2)C(=O)C(NC(=O)C2CCCCC2)=C1N1CC1`, for which the T/C is 123 % of control (dose: 25.0 mg/kg/injection, schedule: Q01DX009 (ip), vehicle: Klucel (hydroxypropylcellulose) (HPC)); 118 % of control (dose: 50.0 mg/kg/injection, schedule: Q01DX010 (ip), vehicle: saline); 106 % of control under setting [4]; 150 % of control and 209 % of control (dose: 200.0 mg/kg/injection, schedule: Q01DX010 (ip), vehicle: saline); 86 % of control (dose: 400.0 mg/kg/injection, schedule: Q01DX010 (ip), vehicle: saline).

Regarding `CC(=O)OC1C=CC(=O)OC1C1OC1C` (stereo not given), the T/C by setting is: (dose: 3.0 mg/kg/injection, schedule: Q01DX010 (ip), vehicle: carboxymethylcellulose (CMC)) 90 % of control; (dose: 6.0 mg/kg/injection, schedule: Q01DX010 (ip), vehicle: carboxymethylcellulose (CMC)) 90 % of control; (dose: 12.0 mg/kg/injection, schedule: Q01DX010 (ip), vehicle: carboxymethylcellulose (CMC)) 100 % of control; (dose: 25.0 mg/kg/injection, schedule: Q01DX010 (ip), vehicle: carboxymethylcellulose (CMC)) 109 % of control.

In the case of `CC(Br)C(=O)NCC(=O)NCC(=O)O` (stereo not given), the T/C (dose: 100.0 mg/kg/injection, schedule: Q01DX009 (ip), vehicle: saline) is 108 % of control; the T/C under setting [5] is 108 % of control; the T/C (dose: 200.0 mg/kg/injection, schedule: Q01DX009 (ip), vehicle: saline) was 91 % of control; the T/C under setting [6] is 91 % of control; the T/C under setting [7] was 87 % of control.

On to `N#Cc1cnn2c(=O)[nH]cnc12`, for which the T/C is 100 % of control (dose: 50.0 mg/kg/injection, schedule: Q01DX009 (ip), vehicle: other); 100 % of control (dose: 100.0 mg/kg/injection, schedule: Q01DX009 (ip), vehicle: other); 100 % of control under setting [5]; 100 % of control (dose: 200.0 mg/kg/injection, schedule: Q01DX009 (ip), vehicle: other); 100 % of control under setting [6]; 118 % of control under setting [7].

In the case of `N#Cc1cnc(=S)n(-c2cc(C(F)(F)F)cc(C(F)(F)F)c2)c1N`, the T/C runs as follows: under setting [1], 101 % of control; under setting [2], 115 % of control.

In the case of `N#CN=C([S-])[S-].N#CN=C([S-])[S-].[Cu]`, the T/C runs as follows: (dose: 0.39 mg/kg/injection, schedule: Q01DX001 (ip), vehicle: saline) 104 % of control; (dose: 0.78 mg/kg/injection, schedule: Q01DX001 (ip), vehicle: saline) 100 % of control; (dose: 1.56 mg/kg/injection, schedule: Q01DX001 (ip), vehicle: saline) 100 % of control; (dose: 6.25 mg/kg/injection, schedule: Q01DX009 (ip), vehicle: saline) 100 % of control; (dose: 6.25 mg/kg/injection, schedule: Q04DX003 (ip), vehicle: saline) 86 % of control; (dose: 12.5 mg/kg/injection, schedule: Q04DX003 (ip), vehicle: saline) 100 % of control.

Take `C=CCc1ccccc1CNC(C)(C)CO`: the T/C under setting [1] was 103 % of control and the T/C under setting [2] is 103 % of control.

Regarding `Cc1ccc(C)c2c1CCC2C` (stereo not given), the T/C under setting [2] is 123 % of control and the T/C under setting [3] was 96 % of control.

Consider `Nc1ccccc1SC1CC(=O)N(c2ccccc2)C1=O` (stereo not given), for which the T/C runs as follows: (dose: 100.0 mg/kg/injection, schedule: Q01DX001 (ip), vehicle: Klucel (hydroxypropylcellulose) (HPC)) 100 % of control; under setting [4], 116 % of control; (dose: 100.0 mg/kg/injection, schedule: Q04DX003 (ip), vehicle: Klucel (hydroxypropylcellulose) (HPC)) 100 % of control; (dose: 200.0 mg/kg/injection, schedule: Q01DX001 (ip), vehicle: Klucel (hydroxypropylcellulose) (HPC)) 95 % of control; (dose: 200.0 mg/kg/injection, schedule: Q01DX009 (ip), vehicle: Klucel (hydroxypropylcellulose) (HPC)) 122 % of control; (dose: 200.0 mg/kg/injection, schedule: Q04DX003 (ip), vehicle: Klucel (hydroxypropylcellulose) (HPC)) 95 % of control. The T/C (dose: 400.0 mg/kg/injection, schedule: Q01DX001 (ip), vehicle: Klucel (hydroxypropylcellulose) (HPC)) was 95 % of control; the T/C (dose: 400.0 mg/kg/injection, schedule: Q01DX009 (ip), vehicle: Klucel (hydroxypropylcellulose) (HPC)) is 105 % of control; the T/C (dose: 400.0 mg/kg/injection, schedule: Q04DX003 (ip), vehicle: Klucel (hydroxypropylcellulose) (HPC)) is 95 % of control.

(Values after PubChem BioAssay AID328 (DTP/NCI, 2004).)
